According to article PMC12504763, “Antiproliferation, 3D-multicellular spheroid and VEGFR-2 inhibitory properties of spiroindolin-2-ones with phosphonate function” (Scientific Reports, 2025):
Read-outs that look alike come from different tables or passages of the source.

Assays:
[1] = system: A549 (lung) cancer cell line; experiment: 2D-monolayer antiproliferation (MTT) against A549; type: cell-based, human; settings: for IC50: Homo sapiens, MTT, 72 h incubation, A549 lung, read-out: IC50, μM ± SEM A549; for SI (selectivity index) A549: IC50 of RPE1 normal cell/IC50 of A549
[2] = system: PaCa2 (pancreatic) cancer cell line; experiment: 2D-monolayer antiproliferation (MTT) against PaCa2; type: cell-based, human; settings: for IC50: Homo sapiens, PaCa-2, MTT, 72 h incubation, PaCa2 pancreatic, read-out: IC50, μM ± SEM PaCa2; for SI (selectivity index) PaCa2: IC50 of RPE1 normal cell/IC50 of PaCa2; for 1/(observed property): 1/observed IC50 (μM), PaCa2
[3] = target: T1, COX-2 (Homo sapiens, UniProt P35354); experiment: biochemical; settings: for inhibition at 10 µM: 3 replicates, read-out: % Inhibition of COX-2 ± SEM; for SI (selectivity index, COX-2/COX-1): at 10 μM
T1 construct: purchased BioVision incorporated USA K548–100
T1 sequence (P35354 18-604): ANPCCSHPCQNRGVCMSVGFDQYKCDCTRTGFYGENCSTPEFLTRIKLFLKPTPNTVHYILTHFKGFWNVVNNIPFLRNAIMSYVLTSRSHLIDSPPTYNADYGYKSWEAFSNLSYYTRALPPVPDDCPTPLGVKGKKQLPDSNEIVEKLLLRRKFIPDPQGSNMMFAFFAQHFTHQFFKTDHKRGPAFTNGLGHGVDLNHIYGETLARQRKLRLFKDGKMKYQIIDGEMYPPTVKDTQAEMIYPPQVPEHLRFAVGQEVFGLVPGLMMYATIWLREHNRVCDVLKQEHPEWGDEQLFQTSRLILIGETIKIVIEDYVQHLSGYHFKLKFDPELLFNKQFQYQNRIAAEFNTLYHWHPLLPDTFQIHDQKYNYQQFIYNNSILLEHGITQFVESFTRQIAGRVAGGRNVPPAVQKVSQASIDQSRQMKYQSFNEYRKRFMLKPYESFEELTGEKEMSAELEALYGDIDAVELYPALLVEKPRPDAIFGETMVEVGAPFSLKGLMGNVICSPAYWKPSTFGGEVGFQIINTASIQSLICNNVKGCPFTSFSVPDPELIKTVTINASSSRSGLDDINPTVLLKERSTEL

[4] = target: T2, VEGFR-2 (Homo sapiens, UniProt P35968); experiment: cell-based; type: cell-based; settings: for inhibition at 10 µM: MCF7; for VEGFR-2 pg/mL ± SEM MCF7: at 10 μM, control 258.70 ± 2.3
T2 construct: endogenous in cells; host or cells: HCT116, PaCa2, MCF7 (human cancer cell lines, ATCC origin)
T2 sequence (P35968 20-1356): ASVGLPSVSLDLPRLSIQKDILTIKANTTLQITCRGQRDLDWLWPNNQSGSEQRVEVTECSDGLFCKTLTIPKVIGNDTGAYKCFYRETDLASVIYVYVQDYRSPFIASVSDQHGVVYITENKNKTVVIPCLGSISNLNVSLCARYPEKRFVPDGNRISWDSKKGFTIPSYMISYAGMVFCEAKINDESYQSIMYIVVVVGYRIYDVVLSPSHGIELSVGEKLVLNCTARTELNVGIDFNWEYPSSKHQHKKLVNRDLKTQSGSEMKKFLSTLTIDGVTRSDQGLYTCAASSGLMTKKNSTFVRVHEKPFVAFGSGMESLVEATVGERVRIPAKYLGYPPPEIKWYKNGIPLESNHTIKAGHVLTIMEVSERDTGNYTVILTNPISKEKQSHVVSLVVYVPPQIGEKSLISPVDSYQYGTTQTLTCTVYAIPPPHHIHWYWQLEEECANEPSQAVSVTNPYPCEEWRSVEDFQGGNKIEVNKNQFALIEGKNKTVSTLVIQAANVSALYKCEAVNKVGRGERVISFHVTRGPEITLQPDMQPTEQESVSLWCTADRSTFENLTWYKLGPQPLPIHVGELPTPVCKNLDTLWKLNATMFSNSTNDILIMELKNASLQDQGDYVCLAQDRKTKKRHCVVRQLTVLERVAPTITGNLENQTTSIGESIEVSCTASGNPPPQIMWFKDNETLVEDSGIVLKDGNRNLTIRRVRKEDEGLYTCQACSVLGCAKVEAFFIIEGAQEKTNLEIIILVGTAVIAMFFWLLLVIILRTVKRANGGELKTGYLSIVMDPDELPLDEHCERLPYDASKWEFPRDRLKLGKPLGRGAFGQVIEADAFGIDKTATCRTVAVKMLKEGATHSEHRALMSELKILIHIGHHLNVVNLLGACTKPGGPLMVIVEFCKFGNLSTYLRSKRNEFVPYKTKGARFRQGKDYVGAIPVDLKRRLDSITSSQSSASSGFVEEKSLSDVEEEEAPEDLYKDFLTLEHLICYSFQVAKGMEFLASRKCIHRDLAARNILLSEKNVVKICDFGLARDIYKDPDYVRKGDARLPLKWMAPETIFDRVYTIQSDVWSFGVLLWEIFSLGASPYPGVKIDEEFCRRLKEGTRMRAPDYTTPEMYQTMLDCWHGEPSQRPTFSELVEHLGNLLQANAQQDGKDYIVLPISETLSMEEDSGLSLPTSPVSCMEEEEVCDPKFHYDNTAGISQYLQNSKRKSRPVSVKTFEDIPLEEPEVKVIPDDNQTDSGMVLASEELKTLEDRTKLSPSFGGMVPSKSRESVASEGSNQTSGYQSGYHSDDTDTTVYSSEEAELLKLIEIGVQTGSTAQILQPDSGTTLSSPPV

[5] = system: TNF-α; experiment: TNF-α inhibitory properties (ELISA), PaCa2 cell lysate; type: cell-based, human; settings: at 10 μM; for TNF-α pg/mL (± SEM) PaCa2: control 111.8 ± 2.0
[6] = system: TNF-α; experiment: TNF-α inhibitory properties (ELISA), MCF7 cell lysate; type: cell-based, human; settings: at 10 μM; for TNF-α pg/mL (± SEM) MCF7: control 83.26 ± 1.1
[7] = target: T2, VEGFR-2; experiment: cell-based; type: cell-based; settings: for inhibition at 10 µM: PaCa-2, PaCa2; for VEGFR-2 pg/mL ± SEM PaCa2: at 10 μM, control 326.80 ± 1.9
[8] = target: T2, VEGFR-2; experiment: cell-based; type: cell-based; settings: for inhibition at 10 µM: HCT-116, HCT116; for VEGFR-2 pg/mL ± SEM HCT116: at 10 μM, control 317.80 ± 3.5
[9] = system: TNF-α; experiment: TNF-α inhibitory properties (ELISA), HCT116 cell lysate; type: cell-based, human; settings: at 10 μM; for TNF-α pg/mL (± SEM) HCT116: control 95.74 ± 0.5
[10] = system: RPE1 (normal human immortalized retinal pigment epithelial cell line); experiment: cells; type: cell-based; settings: Homo sapiens, RPE-1; MTT, normal RPE1 cell; read-out: IC50, μM ± SEM RPE1
[11] = target: T3, COX-1 (Ovis aries, UniProt P05979); experiment: biochemical; settings: 3 replicates, read-out: % Inhibition of COX-1 ± SEM
T3 construct: purchased BioVision incorporated USA K548–100
T3 sequence (P05979 25-600): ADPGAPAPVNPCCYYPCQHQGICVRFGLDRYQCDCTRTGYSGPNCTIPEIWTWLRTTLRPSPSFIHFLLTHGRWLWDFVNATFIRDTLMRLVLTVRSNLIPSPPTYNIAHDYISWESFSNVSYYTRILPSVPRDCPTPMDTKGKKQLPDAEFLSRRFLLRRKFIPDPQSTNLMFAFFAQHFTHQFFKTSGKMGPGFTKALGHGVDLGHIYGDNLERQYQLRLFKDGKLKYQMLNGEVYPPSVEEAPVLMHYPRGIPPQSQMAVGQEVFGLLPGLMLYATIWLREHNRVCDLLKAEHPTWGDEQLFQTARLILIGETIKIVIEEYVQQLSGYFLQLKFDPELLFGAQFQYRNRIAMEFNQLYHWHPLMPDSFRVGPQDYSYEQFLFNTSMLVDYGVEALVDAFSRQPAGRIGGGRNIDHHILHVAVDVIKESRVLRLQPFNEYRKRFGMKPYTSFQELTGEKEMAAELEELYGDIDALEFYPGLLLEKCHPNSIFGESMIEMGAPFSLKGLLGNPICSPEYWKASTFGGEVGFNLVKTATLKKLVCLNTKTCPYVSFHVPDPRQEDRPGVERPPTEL

[12] = system: HCT116 (colon) cancer cell line; experiment: 2D-monolayer antiproliferation (MTT) against HCT116; type: cell-based, human; settings: for IC50: Homo sapiens, HCT-116; for SI (selectivity index) HCT116: IC50 of RPE1 normal cell/IC50 of HCT116
[13] = system: MCF7 (breast) cancer cell line; experiment: 2D-monolayer antiproliferation (MTT) against MCF7; type: cell-based, human; settings: for IC50: Homo sapiens, MTT, 72 h incubation, MCF7 breast, read-out: IC50, μM ± SEM MCF7; for SI (selectivity index) MCF7: IC50 of RPE1 normal cell/IC50 of MCF7
[14] = MTT, 72 h incubation, HCT116 colon, read-out: IC50, μM ± SEM HCT116
[15] = log of observed IC50 (μM), HCT116, read-out: Log(observed property) (converted)

| Structure (SMILES) | IC50 [1] [µM] | SI (selectivity index) A549 [1] | IC50 [2] [µM] | SI (selectivity index) PaCa2 [2] | inhibition at 10 µM [3] [%] | SI (selectivity index, COX-2/COX-1) [3] | inhibition at 10 µM [4] [%] | VEGFR-2 pg/mL ± SEM MCF7 [4] [pg/mL] | TNF-α % inhibition PaCa2 [5] [%] | TNF-α pg/mL (± SEM) PaCa2 [5] [pg/mL] | TNF-α pg/mL (± SEM) MCF7 [6] [pg/mL] | inhibition at 10 µM [7] [%] | VEGFR-2 pg/mL ± SEM PaCa2 [7] [pg/mL] | inhibition at 10 µM [8] [%] | VEGFR-2 pg/mL ± SEM HCT116 [8] [pg/mL] | TNF-α % inhibition HCT116 [9] [%] | TNF-α pg/mL (± SEM) HCT116 [9] [pg/mL] | IC50 [10] [µM] | inhibition at 10 µM [11] [%] | TNF-α % inhibition MCF7 [6] [%] | also measured |
| --- | --- | --- | --- | --- | --- | --- | --- | --- | --- | --- | --- | --- | --- | --- | --- | --- | --- | --- | --- | --- | --- |
| CCOP(=O)(OCC)N1C/C(=C\c2ccccc2)C(=O)C2(C1)C(c1ccccc1)CN(C)C21C(=O)Nc2ccc(F)cc21 (stereo not shown) [Compound 17b, Diethyl (E)-(5′′-benzylidene-5-fluoro-1′-methyl-2,4′′-dioxo-4′-phenyldispiro[indoline-3,2′-pyrrolidine-3′,3′′-piperidin]-1′′-yl)phosphonate] | 11 ± 0.135 | 2.1 | 12.2 ± 0.297 | 1.9 | 61.3 ± 2.6 | 1.04 | 70.2 | 77.20 ± 0.6 | 5.5 | 105.7 ± 3.9 | 82.25 ± 2.6 | 88.1 | 38.75 ± 1.4 | 77 | 73.25 ± 2.0 | 1.1 | 94.64 ± 2.2 | 23.1 ± 0.884 | 53.7 ± 3.7 |  | IC50 [12, 14]: 7.41 ± 0.228 µM; IC50 [12, 15]: 7.41 µM; SI (selectivity index) HCT116 [12]: 3.1; IC50 [13]: 5.83 ± 0.213 µM; SI (selectivity index) MCF7 [13]: 4.0 |
| CCOP(=O)(OCC)N1C/C(=C\c2ccccc2)C(=O)C2(C1)C(c1ccccc1)CN(C)C21C(=O)Nc2ccc(Cl)cc21 (stereo not shown) [Compound 17c, Diethyl (E)-(5′′-benzylidene-5-chloro-1′-methyl-2,4′′-dioxo-4′-phenyldispiro[indoline-3,2′-pyrrolidine-3′,3′′-piperidin]-1′′-yl)phosphonate] | 12.5 ± 0.205 | 1.1 | 9.15 ± 0.154 | 1.5 | 53.9 ± 1.7 | 1.05 | 76.7 | 60.40 ± 0.5 | 69.8 | 33.8 ± 2.2 | 23.16 ± 0.7 | 91.3 | 28.43 ± 1.0 | 86 | 44.50 ± 1.1 | 66.9 | 31.72 ± 1.2 | 13.8 ± 0.423 | 58.6 ± 3.5 | 72.2 | 1/(observed property) [2]: 0.1093; IC50 [12, 14]: 6.32 ± 0.132 µM; IC50 [12, 15]: 6.32 µM; SI (selectivity index) HCT116 [12]: 2.2; IC50 [13]: 5.27 ± 0.172 µM; SI (selectivity index) MCF7 [13]: 2.6 |
| CCOP(=O)(OCC)N1C/C(=C\c2ccc(F)cc2)C(=O)C2(C1)C(c1ccc(F)cc1)CN(C)C21C(=O)Nc2ccccc21 (stereo not shown) [Compound 17e, Diethyl (E)-[5′′-(4-fluorobenzylidene)-4′-(4-fluorophenyl)-1′-methyl-2,4′′-dioxodispiro[indoline-3,2′-pyrrolidine-3′,3′′-piperidin]-1′′-yl]phosphonate] | 7.73 ± 0.155 | 2.1 | 9.48 ± 0.278 | 1.8 | 59.6 ± 1.3 | 1.08 | 55 | 116.50 ± 1.0 | 12.7 | 97.6 ± 1.6 | 81.87 ± 3.0 | 61 | 127.43 ± 1.3 | 66.2 | 107.50 ± 2.0 | 1.5 | 94.27 ± 0.7 | 16.6 ± 0.907 | 55 ± 3.6 | 1.7 | 1/(observed property) [2]: 0.1055; IC50 [12, 14]: 6.99 ± 0.101 µM; IC50 [12, 15]: 6.99 µM; SI (selectivity index) HCT116 [12]: 2.4; IC50 [13]: 5.64 ± 0.273 µM; SI (selectivity index) MCF7 [13]: 2.9 |
| CC(C)Cc1ccc(C(C)C(=O)O)cc1 (stereo not shown) [Ibuprofen, reference compound] |  |  |  |  |  |  |  |  | 42.0 | 64.8 ± 0.6 | 76.8 ± 2.0 |  |  |  |  | 22.2 | 74.5 ± 1.1 |  |  | 7.8 |  |
| COc1ccc2c(c1)c(CC(=O)O)c(C)n2C(=O)c1ccc(Cl)cc1 [Indomethacin, reference compound] |  |  |  |  |  |  |  |  | 32.6 | 75.3 ± 2.1 | 64.2 ± 1.6 |  |  |  |  | 42.8 | 54.8 ± 0.7 |  |  | 22.9 |  |
